Results: paper PMC5396265 (Angewandte Chemie (International Ed. in English), 2017)

Biological target: SPM-1 (São Paulo metallo-β-lactamase; SPM-1* for 19F-labelled variants) (Pseudomonas aeruginosa, UniProt Q8G9Q0, Y58C)
Settings: Cys58 labelled with CH2COCF3 (BTFA); meropenem up to 400 uM, 40 uM protein, 50 mM Tris pH 7.5, 9:1 H2O/D2O; product formed in situ; presence of this pair in Table S3 not seen

Chain of SPM-1 (São Paulo metallo-β-lactamase; SPM-1* for 19F-labelled variants) (Q8G9Q0 29-276 Y58C): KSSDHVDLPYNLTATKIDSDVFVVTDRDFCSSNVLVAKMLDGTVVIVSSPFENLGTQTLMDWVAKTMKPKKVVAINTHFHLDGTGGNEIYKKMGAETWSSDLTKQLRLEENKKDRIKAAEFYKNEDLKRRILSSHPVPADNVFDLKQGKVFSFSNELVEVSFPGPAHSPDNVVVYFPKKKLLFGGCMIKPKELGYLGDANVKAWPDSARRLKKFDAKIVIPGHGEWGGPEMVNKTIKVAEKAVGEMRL

SMILES: CC(O)C(C(=O)O)C1NC(C(=O)O)=C(SC2CNC(C(=O)N(C)C)C2)C1C (stereo not shown) [hydrolyzed meropenem]
- Kd: 100 ± 10 µM
